IC50 data for 10 compounds are collected here from BindingDB's records for doi:10.1016/j.bioorg.2015.05.009 (Peking University, 2015).

The structures appear in SMILES notation.

For the test, the target named is Glycogen synthase kinase-3 beta (Homo sapiens, UniProt P49841). Put plainly: Kinase-Glo Luminescent Kinase Assay. The settings on record: pH 7.4. How it is done: Briefly, recombinant human GSK3β (1 µM, 10 µL) was mixed with 10 µL of GSK3β substrate ([…]pSEDEEE, 100 µM), 19 µL of 2.5 × kinase buffer (50 mM Tris-HCl, pH 7.4, 25 mM MgCl2), 10 µL of 10 µM ATP, 1 µL of the indicated amount of chemicals in DMSO to a final volume of 50 µL. Control reaction without kinase was set up. The mixtures were incubated at 30 °C for 40 min. The enzymatic reaction was stopped with 50 µL of Kinase-Glo reagent. Glow-type luminescence was recorded after 10 min.
Glycogen synthase kinase-3 beta, sequence (P49841 whole entry): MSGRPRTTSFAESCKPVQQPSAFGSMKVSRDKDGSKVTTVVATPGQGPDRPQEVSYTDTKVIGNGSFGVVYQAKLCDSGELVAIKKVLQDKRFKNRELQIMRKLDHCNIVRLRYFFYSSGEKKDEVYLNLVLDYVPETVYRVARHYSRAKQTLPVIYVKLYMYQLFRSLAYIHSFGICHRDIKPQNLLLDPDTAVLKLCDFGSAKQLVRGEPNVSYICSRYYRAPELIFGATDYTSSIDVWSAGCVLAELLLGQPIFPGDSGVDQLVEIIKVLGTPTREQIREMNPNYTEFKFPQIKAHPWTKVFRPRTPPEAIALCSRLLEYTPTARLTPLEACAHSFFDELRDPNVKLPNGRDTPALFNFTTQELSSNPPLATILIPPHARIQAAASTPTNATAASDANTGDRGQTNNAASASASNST
A general note: In Kinase-Glo more light means more ATP remaining.
`COc1cc2c(C)cc3c(c2cc1OC)C(=O)NC3=O` [7,8-Dimethoxy-5-methyl-1H-benzo[e]isoindole-1,3(2H)-dione] returned a 50% inhibitory concentration (IC50) of 1010 nM.

The compound `COc1cc2c(CNC3CCN(S(=O)(=O)c4ccccc4[N+](=O)[O-])CC3)cc3c(c2cc1OC)C(=O)NC3=O` [7,8-dimethoxy-5-((1-(2-nitrophenylsulfonyl)piperidin-4-ylamino)methyl)-1H-benzo[e]isoindole-1,3(2H)-dione (8f)] registered a half-inhibitory concentration (IC50) of 530 nM.

For `COc1cc2c(CNC3CCN(S(=O)(=O)c4ccc(C(F)(F)F)cc4)CC3)cc3c(c2cc1OC)C(=O)NC3=O` [7,8-dimethoxy-5-((1-(4-(trifluoromethyl)phenylsulfonyl)piperidin-4-ylamino)methyl)-1Hbenzo[e]isoindole-1,3 (2H)-dione (8e)], 530 nM corresponded to half-maximal inhibition (IC50).

On to `COc1ccc(S(=O)(=O)N2CCC(NCc3cc4c(c5cc(OC)c(OC)cc35)C(=O)NC4=O)CC2)cc1` [7,8-dimethoxy-5-((1-(4-methoxyphenylsulfonyl)piperidin-4-ylamino)methyl)-1H-benzo[e]isoindole-1,3(2H)-dione (8b)], for which 2610 nM corresponded to half-maximal inhibition (IC50).

With `COc1cc2c(CNC3CCN(S(=O)(=O)c4ccc([N+](=O)[O-])cc4)CC3)cc3c(c2cc1OC)C(=O)NC3=O` [7,8-dimethoxy-5-((1-(4-nitrophenylsulfonyl)piperidin-4-ylamino)methyl)-1H-benzo[e]isoindole-1,3(2H)-dione (8c)], the IC50 turned out to be 310 nM.

For the compound `COc1cc2c(CNC3CCN(S(C)(=O)=O)CC3)cc3c(c2cc1OC)C(=O)NC3=O` [7,8-dimethoxy-5-((1-(methylsulfonyl)piperidin-4-ylamino)methyl)-1H-benzo[e]isoindole-1,3(2H)-dione (8d)], it took 360 nM to reach half-maximal inhibition (IC50).

`COc1cc2c(CNC3CCN(S(=O)(=O)c4ccccc4)CC3)cc3c(c2cc1OC)C(=O)NC3=O` [7,8-dimethoxy-5-((1-(phenylsulfonyl)piperidin-4-ylamino)methyl)-1H-benzo[e]isoindole-1,3(2H)-dione (8g)] showed an IC50 of 1030 nM.

Take `COc1cc2c(CNC3CCN(S(=O)(=O)c4cccc5cccnc45)CC3)cc3c(c2cc1OC)C(=O)NC3=O` [7,8-dimethoxy-5-((1-(quinolin-8-ylsulfonyl)piperidin-4-ylamino)methyl)-1H-benzo[e]isoindole-1,3(2H)-dione (8h)]: the 50% inhibitory concentration (IC50) came to 1530 nM.

`COc1cc2c(CNC3CCN(S(=O)(=O)c4cccs4)CC3)cc3c(c2cc1OC)C(=O)NC3=O` [7,8-dimethoxy-5-((1-(thiophen-2-ylsulfonyl)piperidin-4-ylamino)methyl)-1H-benzo[e]isoindole-1,3(2H)-dione (8i)]: half-maximal inhibition (IC50) required 540 nM.

On to `COc1cc2c(CNC3CCN(S(=O)(=O)c4ccc(C)cc4)CC3)cc3c(c2cc1OC)C(=O)NC3=O` [7,8-dimethoxy-5-({[1-(4-methylbenzenesulfonyl)piperidin-4-yl]amino}methyl)-1H,2H,3H-benzo[e]isoindole-1,3-dione (8a)], for which half-maximal inhibition (IC50) was put at 3730 nM.

As a reminder, the IC50 is the concentration at which inhibition is half-maximal. Lower therefore signals inhibition by little substance.
